Reference: US8877748B2, “Heterocyclic fused anthraquinone derivatives, manufacturing method and pharmaceutical composition using thereof” (National Defense Medical Center, priority 2012, dated 2014)

How the values were obtained:
[1] = test system: PC-3 prostate cancer cell line; assay: SRB assay cell viability, PC-3 prostate cancer cell line; type: cell-based, human; details: PC-3 prostate cancer cell line, Table II prints no unit, μM printed, read-out: SRB assay: 50% inhibition of cancer cell proliferation of sample concentration (IC50) of PC-3 prostate cancer cell line
[2] = test system: HL-60, TB; assay: NCI one-dose screening, leukemia HL-60, TB; type: cell-based, human; details: 10 μM
[3] = test system: MOLT-4; assay: NCI one-dose screening, leukemia MOLT-4; type: cell-based, human; details: 10 μM
[4] = test system: SR; assay: NCI one-dose screening, leukemia SR; type: cell-based, human; details: 10 μM
[5] = test system: PRMI-8226 cell line; assay: NCI one-dose screening, leukemia PRMI-8226; type: cell-based, human; details: 10 μM
[6] = test system: K562cell line; assay: NCI one-dose screening, leukemia K562; type: cell-based, human; details: 10 μM
[7] = test system: EKVX; assay: NCI one-dose screening, non-small cell lung cancer EKVX; type: cell-based, human; details: 10 μM
[8] = test system: HOP-62; assay: NCI one-dose screening, non-small cell lung cancer HOP-62; type: cell-based, human; details: 10 μM
[9] = test system: HOP-92; assay: NCI one-dose screening, non-small cell lung cancer HOP-92; type: cell-based, human; details: 10 μM
[10] = test system: NCI-H226; assay: NCI one-dose screening, non-small cell lung cancer NCI-H226; type: cell-based, human; details: 10 μM
[11] = test system: NCI-H23; assay: NCI one-dose screening, non-small cell lung cancer NCI-H23; type: cell-based, human; details: 10 μM
[12] = test system: NCI-H460; assay: NCI one-dose screening, non-small cell lung cancer NCI-H460; type: cell-based, human; details: 10 μM
[13] = test system: NCI-H522; assay: NCI one-dose screening, non-small cell lung cancer NCI-H522; type: cell-based, human; details: 10 μM
[14] = test system: A549/ATCC; assay: NCI one-dose screening, non-small cell lung cancer A549/ATCC; type: cell-based, human; details: 10 μM
[15] = test system: COLO 205; assay: NCI one-dose screening, colon cancer COLO 205; type: cell-based, human; details: 10 μM
[16] = test system: HCC-2998; assay: NCI one-dose screening, colon cancer HCC-2998; type: cell-based, human; details: 10 μM
[17] = test system: HCT-116; assay: NCI one-dose screening, colon cancer HCT-116; type: cell-based, human; details: 10 μM
[18] = test system: HCT-15; assay: NCI one-dose screening, colon cancer HCT-15; type: cell-based, human; details: 10 μM
[19] = test system: KM12; assay: NCI one-dose screening, colon cancer KM12; type: cell-based, human; details: 10 μM
[20] = test system: HT29; assay: NCI one-dose screening, colon cancer HT29; type: cell-based, human; details: 10 μM
[21] = test system: SF-268; assay: NCI one-dose screening, CNS cancer SF-268; type: cell-based, human; details: 10 μM
[22] = test system: SF-295; assay: NCI one-dose screening, CNS cancer SF-295; type: cell-based, human; details: 10 μM
[23] = test system: SF-539; assay: NCI one-dose screening, CNS cancer SF-539; type: cell-based, human; details: 10 μM
[24] = test system: SNB-19; assay: NCI one-dose screening, CNS cancer SNB-19; type: cell-based, human; details: 10 μM
[25] = test system: SNB-75; assay: NCI one-dose screening, CNS cancer SNB-75; type: cell-based, human; details: 10 μM
[26] = test system: U251; assay: NCI one-dose screening, CNS cancer U251; type: cell-based, human; details: 10 μM
[27] = test system: LOX IMVI; assay: NCI one-dose screening, melanoma LOX IMVI; type: cell-based, human; details: 10 μM
[28] = test system: MALME-3M; assay: NCI one-dose screening, melanoma MALME-3M; type: cell-based, human; details: 10 μM
[29] = test system: M14; assay: NCI one-dose screening, melanoma M14; type: cell-based, human; details: 10 μM
[30] = test system: UACC-62; assay: NCI one-dose screening, melanoma UACC-62; type: cell-based, human; details: 10 μM
[31] = test system: UACC-257; assay: NCI one-dose screening, melanoma UACC-257; type: cell-based, human; details: 10 μM
[32] = test system: SK-MEL-2; assay: NCI one-dose screening, melanoma SK-MEL-2; type: cell-based, human; details: 10 μM
[33] = test system: SK-MEL-28; assay: NCI one-dose screening, melanoma SK-MEL-28; type: cell-based, human; details: 10 μM
[34] = test system: SK-MEL-5; assay: NCI one-dose screening, melanoma SK-MEL-5; type: cell-based, human; details: 10 μM
[35] = test system: IGROV1; assay: NCI one-dose screening, ovarian cancer IGROV1; type: cell-based, human; details: 10 μM
[36] = test system: OVCAR-3; assay: NCI one-dose screening, ovarian cancer OVCAR-3; type: cell-based, human; details: 10 μM
[37] = test system: OVCAR-5; assay: NCI one-dose screening, ovarian cancer OVCAR-5; type: cell-based, human; details: 10 μM
[38] = test system: OVCAR-8; assay: NCI one-dose screening, ovarian cancer OVCAR-8; type: cell-based, human; details: 10 μM
[39] = test system: SK-OV-3; assay: NCI one-dose screening, ovarian cancer SK-OV-3; type: cell-based, human; details: 10 μM
[40] = test system: 786-O; assay: NCI one-dose screening, renal cancer 786-O; type: cell-based, human; details: 10 μM
[41] = test system: CAKI-1; assay: NCI one-dose screening, renal cancer CAKI-1; type: cell-based, human; details: 10 μM
[42] = NCI one-dose screening, renal cancer A489; type: cell-based, human; details: 10 μM
[43] = test system: ACHN; assay: NCI one-dose screening, renal cancer ACHN; type: cell-based, human; details: 10 μM
[44] = test system: SN12C; assay: NCI one-dose screening, renal cancer SN12C; type: cell-based, human; details: 10 μM
[45] = test system: TK-10; assay: NCI one-dose screening, renal cancer TK-10; type: cell-based, human; details: 10 μM
[46] = test system: UO-31; assay: NCI one-dose screening, renal cancer UO-31; type: cell-based, human; details: 10 μM
[47] = test system: RXF, 393; assay: NCI one-dose screening, renal cancer RXF, 393; type: cell-based, human; details: 10 μM
[48] = test system: DU145; assay: NCI one-dose screening, prostate cancer DU145; type: cell-based, human; details: 10 μM
[49] = test system: PC-3; assay: NCI one-dose screening, prostate cancer PC-3; type: cell-based, human; details: 10 μM
[50] = test system: MCF7; assay: NCI one-dose screening, breast cancer MCF7; type: cell-based, human; details: 10 μM
[51] = test system: HS 578-T; assay: NCI one-dose screening, breast cancer HS 578-T; type: cell-based, human; details: 10 μM; Breast cancer
[52] = test system: MDA-MB-231/ATCC; assay: NCI one-dose screening, breast cancer MDA-MB-231/ATCC; type: cell-based, human; details: 10 μM
[53] = test system: MDA-MB-468; assay: NCI one-dose screening, breast cancer MDA-MB-468; type: cell-based, human; details: 10 μM
[54] = test system: NCl/ADR-RES; assay: NCI one-dose screening, breast cancer NCl/ADR-RES; type: cell-based, human; details: 10 μM; listed under Ovarian cancer
[55] = test system: BT-549; assay: NCI one-dose screening, breast cancer BT-549; type: cell-based, human; details: 10 μM
[56] = test system: T-47D; assay: NCI one-dose screening, breast cancer T-47D; type: cell-based, human; details: 10 μM
[57] = test system: MDA, -MB-435; assay: NCI one-dose screening, breast cancer MDA, -MB-435; type: cell-based, human; details: 10 μM; listed under Melanoma
[58] = test system: human tumor cell lines; assay: NCI one-dose screening, Mean / Delta / Range of growth percent over all tested cell lines; type: cell-based; details: 10 μM

O=C1c2ccccc2C(=O)c2c1cc(Sc1ccccc1Br)c1nsnc21 [C27, 4-(2-bromo-phenylthio)anthra[2,1-c] [1,2,5]thiadiazol oxazole-6,11-dione]
IC50 [1]: 5.76 µM | Growth Percent HL-60(TB) [2]: −43.96% | Growth Percent MOLT-4 [3]: 29.67% | Growth Percent SR [4]: 2.94% | Growth Percent RPMI-8226 [5]: 9.40% | Growth Percent K562 [6]: 29.66% | Growth Percent EKVX [7]: 77.74% | Growth Percent HOP-62 [8]: 4.88% | Growth Percent HOP-92 [9]: 37.57% | Growth Percent NCI-H226 [10]: 92.07% | Growth Percent NCI-H23 [11]: 18.02% | Growth Percent NCI-H460 [12]: 58.24% | Growth Percent NCI-H522 [13]: 30.77% | Growth Percent A549/ATCC [14]: 95.37% | Growth Percent COLO 205 [15]: 97.36% | Growth Percent HCC-2998 [16]: 78.44% | Growth Percent HCT-116 [17]: 16.62% | Growth Percent HCT-15 [18]: 39.74% | Growth Percent KM12 [19]: 57.85% | Growth Percent HT29 [20]: 96.46% | Growth Percent SF-268 [21]: −5.11% | Growth Percent SF-295 [22]: 100.07% | Growth Percent SF-539 [23]: −5.66% | Growth Percent SNB-19 [24]: 71.38% | Growth Percent SNB-75 [25]: 47.20% | Growth Percent U251 [26]: 11.49% | Growth Percent LOX IMVI [27]: −15.34% | Growth Percent MALME-3M [28]: 35.27% | Growth Percent M14 [29]: 59.45% | Growth Percent UACC-62 [30]: 39.58% | Growth Percent UACC-257 [31]: 4.75% | Growth Percent SK-MEL-2 [32]: 35.02% | Growth Percent SK-MEL-28 [33]: 64.65% | Growth Percent SK-MEL-5 [34]: 46.26% | Growth Percent IGROV1 [35]: 27.94% | Growth Percent OVCAR-3 [36]: −65.85% | Growth Percent OVCAR-5 [37]: 120.52% | Growth Percent OVCAR-8 [38]: 2.47% | Growth Percent SK-OV-3 [39]: 66.68% | Growth Percent 786-0 [40]: −6.19% | Growth Percent CAKI-1 [41]: 29.67% | Growth Percent A498 [42]: 24.25% | Growth Percent ACHN [43]: 25.50% | Growth Percent SN12C [44]: 22.56% | Growth Percent TK-10 [45]: 76.52% | Growth Percent UO-31 [46]: 56.15% | Growth Percent RXF 393 [47]: −8.53% | Growth Percent DU145 [48]: 50.57% | Growth Percent PC-3 [49]: 4.23% | Growth Percent MCF7 [50]: −6.39% | Growth Percent HS 578T [51]: 54.25% | Growth Percent MDA-MB-231/ATCC [52]: 16.85% | Growth Percent MDA-MB-468 [53]: −79.88% | Growth Percent NCI/ADR-RES [54]: −29.94% | Growth Percent BT-549 [55]: 52.19% | Growth Percent T-47D [56]: −33.05% | Growth Percent MDA-MB-435 [57]: −72.95% | Growth Percent Delta ([58]; delta over all cell lines): 109.49% | Growth Percent Mean ([58]; mean over all cell lines): 29.61% | Growth Percent Range ([58]; range over all cell lines): 200.40%
